System: MV-4-11 cells
Experiment: Gene expression microarray analysis (Affymetrix PrimeView) and GSEA
Type: cell-based, human
Design: RFU PODN (11730768_x_at) / Fold change /veh PODN (11730768_x_at) / RFU LINC00158 (11744669_a_at) / Fold change /veh LINC00158 (11744669_a_at) / RFU DUSP10 (11751237_a_at) / Fold change /veh DUSP10 (11751237_a_at) / RFU ID3 (11757404_x_at) / Fold change /veh ID3 (11757404_x_at) / RFU PLEKHG5 (11737974_s_at) / Fold change /veh PLEKHG5 (11737974_s_at) / RFU LRRC4B (11730491_at) / Fold change /veh LRRC4B (11730491_at) / RFU GIMAP4 (11747438_a_at) / Fold change /veh GIMAP4 (11747438_a_at) / RFU KRT8 (11758183_x_at) / Fold change /veh KRT8 (11758183_x_at) / RFU CNN1 (11734310_a_at) / Fold change /veh CNN1 (11734310_a_at) / RFU VPS37D (11726825_at) / Fold change /veh VPS37D (11726825_at) / RFU C10orf10 (11716522_x_at) / Fold change /veh C10orf10 (11716522_x_at) / RFU KIR2DL2 /// KIR2DL4 /// KIR2DL5A /// KIR2DL5B /// KIR2DS1 /// KIR2DS2 /// KIR2DS3 /// KIR2DS4 /// KIR3DL3 /// KIR3DL3 /// KIR3DS1 (11738374_at) / Fold change /veh KIR2DL2 /// KIR2DL4 /// KIR2DL5A /// KIR2DL5B /// KIR2DS1 /// KIR2DS2 /// KIR2DS3 /// KIR2DS4 /// KIR3DL3 /// KIR3DL3 /// KIR3DS1 (11738374_at) / RFU C1QL1 (11718748_at) / Fold change /veh C1QL1 (11718748_at) / RFU TMPRSS4 (11747572_a_at) / Fold change /veh TMPRSS4 (11747572_a_at) / RFU HAMP (11756126_x_at) / Fold change /veh HAMP (11756126_x_at) / RFU RNFT2 (11725882_a_at) / Fold change /veh RNFT2 (11725882_a_at) / RFU NR4A2 (11747474_a_at) / Fold change /veh NR4A2 (11747474_a_at) / RFU ABCC12 (11746883_a_at) / Fold change /veh ABCC12 (11746883_a_at) / RFU TMEM136 (11760407_x_at) / Fold change /veh TMEM136 (11760407_x_at) / RFU CLDN22 /// WWC2 (11732394_at) / Fold change /veh CLDN22 /// WWC2 (11732394_at) / RFU HLA-DPB1 (11760878_x_at) / Fold change /veh HLA-DPB1 (11760878_x_at) / RFU SPINT1 (11716480_a_at) / Fold change /veh SPINT1 (11716480_a_at) / RFU GAP43 (11754022_s_at) / Fold change /veh GAP43 (11754022_s_at) / RFU A4GNT (11735810_at) / Fold change /veh A4GNT (11735810_at) / RFU PRB3 (11715151_x_at) / Fold change /veh PRB3 (11715151_x_at) / RFU TUBB4B (11761932_at) / Fold change /veh TUBB4B (11761932_at) / RFU CAPN14 (11732068_a_at) / Fold change /veh CAPN14 (11732068_a_at) / RFU TMCC2 (11721928_a_at) / Fold change /veh TMCC2 (11721928_a_at) / RFU IRGQ (11745062_a_at) / Fold change /veh IRGQ (11745062_a_at) / RFU FAM174B (11720279_a_at) / Fold change /veh FAM174B (11720279_a_at) / RFU TMPRSS4 (11748680_a_at) / Fold change /veh TMPRSS4 (11748680_a_at) / RFU FAM212B (11763350_a_at) / Fold change /veh FAM212B (11763350_a_at) / RFU PLEKHG5 (11743358_a_at) / Fold change /veh PLEKHG5 (11743358_a_at) / RFU ZSCAN30 (11745921_a_at) / Fold change /veh ZSCAN30 (11745921_a_at) / RFU CMKLR1 (11741424_a_at) / Fold change /veh CMKLR1 (11741424_a_at) / RFU LOC101060620 /// MAPK8IP1 (11723275_at) / Fold change /veh LOC101060620 /// MAPK8IP1 (11723275_at) / RFU SPTSSB (11747773_x_at) / Fold change /veh SPTSSB (11747773_x_at) / RFU PRSS12 (11739890_at) / Fold change /veh PRSS12 (11739890_at) / RFU BIN1 (11741810_x_at) / Fold change /veh BIN1 (11741810_x_at) / RFU WNT11 (11732464_a_at) / Fold change /veh WNT11 (11732464_a_at) / RFU C10orf10 (11716521_a_at) / Fold change /veh C10orf10 (11716521_a_at) / RFU C5orf56 (11738089_at) / Fold change /veh C5orf56 (11738089_at) / RFU CYB561 (11721691_x_at) / Fold change /veh CYB561 (11721691_x_at) / RFU ANKRD19P (11752326_a_at) / Fold change /veh ANKRD19P (11752326_a_at) / RFU OR2T12 /// OR2T33 /// OR2T8 (11738714_s_at) / Fold change /veh OR2T12 /// OR2T33 /// OR2T8 (11738714_s_at) / RFU VCAN (11748164_a_at) / Fold change /veh VCAN (11748164_a_at) / RFU JSRP1 (11732532_at) / Fold change /veh JSRP1 (11732532_at) / RFU KRTAP10-11 (11738290_x_at) / Fold change /veh KRTAP10-11 (11738290_x_at) / RFU MYO3A (11730013_a_at) / Fold change /veh MYO3A (11730013_a_at) / RFU EBF3 (11725865_a_at) / Fold change /veh EBF3 (11725865_a_at) / RFU CAMK2N1 (11719241_x_at) / Fold change /veh CAMK2N1 (11719241_x_at) / RFU C5orf56 (11738088_a_at) / Fold change /veh C5orf56 (11738088_a_at) / RFU OLFML3 (11715873_a_at) / Fold change /veh OLFML3 (11715873_a_at) / RFU LOC100653217 /// NTM (11731650_a_at) / Fold change /veh LOC100653217 /// NTM (11731650_a_at) / RFU MAPK11 (11762145_a_at) / Fold change /veh MAPK11 (11762145_a_at) / RFU FIZ1 (11724087_x_at) / Fold change /veh FIZ1 (11724087_x_at) / RFU OASL (11726364_x_at) / Fold change /veh OASL (11726364_x_at) / RFU SOX15 (11748057_x_at) / Fold change /veh SOX15 (11748057_x_at) / RFU CD79A (11719716_a_at) / Fold change /veh CD79A (11719716_a_at) / RFU HIST1H1D (11736915_at) / Fold change /veh HIST1H1D (11736915_at) / RFU CASKIN2 (11723855_a_at) / Fold change /veh CASKIN2 (11723855_a_at) / RFU LOC730098 (11760151_x_at) / Fold change /veh LOC730098 (11760151_x_at) / RFU OR4N2 (11742367_at) / Fold change /veh OR4N2 (11742367_at) / RFU PRRT2 (11749266_a_at) / Fold change /veh PRRT2 (11749266_a_at) / RFU SNX32 (11753110_a_at) / Fold change /veh SNX32 (11753110_a_at) / RFU CDHR5 (11726645_a_at) / Fold change /veh CDHR5 (11726645_a_at) / RFU RCAN1 (11760418_a_at) / Fold change /veh RCAN1 (11760418_a_at) / RFU FAM167A (11723789_a_at) / Fold change /veh FAM167A (11723789_a_at) / RFU FAM26E (11764081_at) / Fold change /veh FAM26E (11764081_at) / RFU ISYNA1 (11749810_s_at) / Fold change /veh ISYNA1 (11749810_s_at) / RFU ACY1 (11761880_at) / Fold change /veh ACY1 (11761880_at) / RFU 11764098_at / Fold change /veh 11764098_at / RFU SAMD14 (11745864_x_at) / Fold change /veh SAMD14 (11745864_x_at) / RFU NPB (11741838_a_at) / Fold change /veh NPB (11741838_a_at) / RFU TMPRSS6 (11731388_a_at) / Fold change /veh TMPRSS6 (11731388_a_at) / RFU KRTAP10-2 (11738614_at) / Fold change /veh KRTAP10-2 (11738614_at) / RFU ARHGAP8 /// PRR5-ARHGAP8 (11727945_x_at) / Fold change /veh ARHGAP8 /// PRR5-ARHGAP8 (11727945_x_at) / RFU KRTAP5-7 /// NADSYN1 (11734609_at) / Fold change /veh KRTAP5-7 /// NADSYN1 (11734609_at) / RFU RASL12 (11751679_a_at) / Fold change /veh RASL12 (11751679_a_at) / RFU CDKN2B (11736163_a_at) / Fold change /veh CDKN2B (11736163_a_at) / RFU PRF1 (11729649_at) / Fold change /veh PRF1 (11729649_at) / RFU, ZNF638 /// ZNF638-IT1 / Fold change vs veh, ZNF638 /// ZNF638-IT1 / RFU, PANK3 / Fold change vs veh, PANK3 / RFU, SH3YL1 / Fold change vs veh, SH3YL1 / RFU, ZEB2 / Fold change vs veh, ZEB2 / RFU, NRIP1 / Fold change vs veh, NRIP1 / RFU, PTTG1IP / Fold change vs veh, PTTG1IP / RFU, CAPN2 / Fold change vs veh, CAPN2 / RFU, MED14 / Fold change vs veh, MED14 / RFU, SNORA58 / Fold change vs veh, SNORA58 / RFU, C1orf63 / Fold change vs veh, C1orf63 / RFU, LRRFIP1 / Fold change vs veh, LRRFIP1 / RFU, NDUFAF7 / Fold change vs veh, NDUFAF7 / RFU, SLC12A2 / Fold change vs veh, SLC12A2 / RFU, IBTK / Fold change vs veh, IBTK / RFU, ESF1 / Fold change vs veh, ESF1 / Fold change vs veh, TMEM50B / RFU, TAOK1 / Fold change vs veh, TAOK1 / RFU, ACBD3 / Fold change vs veh, ACBD3 / RFU, TMA16 / Fold change vs veh, TMA16 / RFU, RWDD3 / Fold change vs veh, RWDD3 / RFU, BCAT1 / Fold change vs veh, BCAT1 / RFU, EDEM3 / Fold change vs veh, EDEM3 / RFU, TMEM33 / Fold change vs veh, TMEM33 / RFU, WDR75 / Fold change vs veh, WDR75 / RFU, AHCTF1 / Fold change vs veh, AHCTF1 / RFU, TFRC / Fold change vs veh, TFRC / RFU, ZDHHC17 / Fold change vs veh, ZDHHC17 / RFU, NOM1 / Fold change vs veh, NOM1 / RFU, ARL8B / Fold change vs veh, ARL8B / RFU, ZBTB11 / Fold change vs veh, ZBTB11 / RFU, TAMM41 / Fold change vs veh, TAMM41 / RFU, KIAA1704 /// LOC100996395 / Fold change vs veh, KIAA1704 /// LOC100996395 / RFU, ING1 / Fold change vs veh, ING1 / RFU, TRMT61B / Fold change vs veh, TRMT61B / RFU, FUBP3 / Fold change vs veh, FUBP3 / RFU, TP53 / Fold change vs veh, TP53 / RFU, TNKS2 / Fold change vs veh, TNKS2 / RFU, ZFP14 / Fold change vs veh, ZFP14 / RFU, ACTR2 / Fold change vs veh, ACTR2 / RFU, PPP3R1 / Fold change vs veh, PPP3R1 / RFU, PIK3R1 / Fold change vs veh, PIK3R1 / RFU, HNRNPA1 / Fold change vs veh, HNRNPA1 / RFU, RNF170 / Fold change vs veh, RNF170 / RFU, ZNF28 / Fold change vs veh, ZNF28 / RFU, RNGTT / Fold change vs veh, RNGTT / RFU, OGT / Fold change vs veh, OGT / RFU, BRD1 / Fold change vs veh, BRD1 / RFU, MARS / Fold change vs veh, MARS / RFU, ZNF655 / Fold change vs veh, ZNF655 / RFU, FAHD1 / Fold change vs veh, FAHD1 / RFU, BDP1 / Fold change vs veh, BDP1 / RFU, LRRCC1 / Fold change vs veh, LRRCC1 / RFU, ARID1A / Fold change vs veh, ARID1A / RFU, ZNF146 / Fold change vs veh, ZNF146 / RFU, ZNF330 / Fold change vs veh, ZNF330 / RFU, GPN3 / Fold change vs veh, GPN3 / RFU, C9orf123 / Fold change vs veh, C9orf123 / RFU, N4BP2L2 / Fold change vs veh, N4BP2L2 / RFU, ARFIP1 / Fold change vs veh, ARFIP1 / RFU, FAM179B / Fold change vs veh, FAM179B / RFU, BCL10 / Fold change vs veh, BCL10 / RFU, UHRF1BP1L / Fold change vs veh, UHRF1BP1L / RFU, BET1 / Fold change vs veh, BET1 / RFU, CNOT2 / Fold change vs veh, CNOT2 / RFU, ZNF268 / Fold change vs veh, ZNF268 / Fold change vs veh, ZNF507 / RFU, DGCR2 / Fold change vs veh, DGCR2 / RFU, WDSUB1 / Fold change vs veh, WDSUB1 / Fold change vs veh, HSP90B1 /// MIR3652 / RFU, ADSS / Fold change vs veh, ADSS / RFU, GK / Fold change vs veh, GK / RFU, ZNF148 / Fold change vs veh, ZNF148 / RFU, TAF9 / Fold change vs veh, TAF9 / RFU, SLC1A5 / Fold change vs veh, SLC1A5 / RFU, SLMO2 / Fold change vs veh, SLMO2 / RFU, ABCC4 / Fold change vs veh, ABCC4 / RFU, LOC101060439 /// RAP1B / Fold change vs veh, LOC101060439 /// RAP1B / RFU, RFX7 / Fold change vs veh, RFX7 / RFU, GTPBP10 / Fold change vs veh, GTPBP10 / RFU, CNEP1R1 / Fold change vs veh, CNEP1R1 / RFU, BIVM-ERCC5 /// ERCC5 / Fold change vs veh, BIVM-ERCC5 /// ERCC5 / RFU, ILF3 / Fold change vs veh, ILF3 / RFU 11762660_at / Fold change /veh 11762660_at / RFU VCAN (11757783_s_at) / Fold change /veh VCAN (11757783_s_at) / RFU DDX43 (11728927_at) / Fold change /veh DDX43 (11728927_at) / RFU KRT8 (11758188_x_at) / Fold change /veh KRT8 (11758188_x_at) / RFU NKD1 (11759106_at) / Fold change /veh NKD1 (11759106_at) / RFU SRD5A1 (11742802_a_at) / Fold change /veh SRD5A1 (11742802_a_at) / RFU TPSAB1 /// TPSB2 (11721975_s_at) / Fold change /veh TPSAB1 /// TPSB2 (11721975_s_at) / RFU GSTM3 (11746129_a_at) / Fold change /veh GSTM3 (11746129_a_at) / RFU IL23R (11737362_x_at) / Fold change /veh IL23R (11737362_x_at) / RFU TMEM51 (11727254_a_at) / Fold change /veh TMEM51 (11727254_a_at) / RFU PIWIL2 (11732686_x_at) / Fold change /veh PIWIL2 (11732686_x_at) / RFU ORM1 (11744905_x_at) / Fold change /veh ORM1 (11744905_x_at) / RFU CCDC152 (11743942_at) / Fold change /veh CCDC152 (11743942_at) / RFU ECM1 (11717891_a_at) / Fold change /veh ECM1 (11717891_a_at) / RFU IL23R (11748794_a_at) / Fold change /veh IL23R (11748794_a_at) / RFU TNFAIP8L3 (11732012_x_at) / Fold change /veh TNFAIP8L3 (11732012_x_at) / RFU MBOAT4 (11741988_at) / Fold change /veh MBOAT4 (11741988_at) / RFU 11764193_at / Fold change /veh 11764193_at / RFU TMEM53 (11763286_at) / Fold change /veh TMEM53 (11763286_at) / RFU MAGEB2 (11727129_at) / Fold change /veh MAGEB2 (11727129_at) / RFU TMEM200A (11744735_a_at) / Fold change /veh TMEM200A (11744735_a_at) / RFU CCDC152 (11751479_a_at) / Fold change /veh CCDC152 (11751479_a_at) / RFU FAM211A (11726209_a_at) / Fold change /veh FAM211A (11726209_a_at) / RFU RGS16 (11746705_a_at) / Fold change /veh RGS16 (11746705_a_at) / RFU VCAN (11755009_s_at) / Fold change /veh VCAN (11755009_s_at) / RFU RHOB (11743442_s_at) / Fold change /veh RHOB (11743442_s_at) / RFU RGS16 (11720943_a_at) / Fold change /veh RGS16 (11720943_a_at) / RFU RGS16 (11720944_at) / Fold change /veh RGS16 (11720944_at) / RFU, VPS4B / Fold change vs veh, VPS4B / RFU, CREB1 / Fold change vs veh, CREB1 / RFU, DNAJC13 / Fold change vs veh, DNAJC13 / RFU, GNAQ / Fold change vs veh, GNAQ / RFU, CDK5R1 / Fold change vs veh, CDK5R1 / RFU, ZRANB3 / Fold change vs veh, ZRANB3 / RFU, CUL4A / Fold change vs veh, CUL4A / RFU, CCNY / Fold change vs veh, CCNY / RFU, UFL1 / Fold change vs veh, UFL1 / RFU, COG3 / Fold change vs veh, COG3 / RFU, DIAPH2 / Fold change vs veh, DIAPH2 / RFU, SKA2 / Fold change vs veh, SKA2 / RFU, AFF3 / Fold change vs veh, AFF3 / RFU, LMF1 / Fold change vs veh, LMF1 / RFU, IPO11 / Fold change vs veh, IPO11 / RFU, DFFB / Fold change vs veh, DFFB / RFU, FOXP1 / Fold change vs veh, FOXP1 / RFU, CARD8 / Fold change vs veh, CARD8 / RFU, STRN3 / Fold change vs veh, STRN3 / RFU, ADK / Fold change vs veh, ADK / RFU, RASSF2 / Fold change vs veh, RASSF2 / RFU, WIPF1 / Fold change vs veh, WIPF1 / RFU, LARP1B / Fold change vs veh, LARP1B / RFU, RASA1 / Fold change vs veh, RASA1 / RFU, RB1 / Fold change vs veh, RB1 / RFU, PPFIA1 / Fold change vs veh, PPFIA1 / RFU, MAT2A / Fold change vs veh, MAT2A / RFU, CCT5 / Fold change vs veh, CCT5 / RFU, WDR92 / Fold change vs veh, WDR92 / RFU, CUX1 / Fold change vs veh, CUX1 / RFU, TTC7A / Fold change vs veh, TTC7A / RFU, TMEM135 / Fold change vs veh, TMEM135 / RFU, DEPTOR / Fold change vs veh, DEPTOR / RFU, CPM / Fold change vs veh, CPM / RFU, DNAJB6 / Fold change vs veh, DNAJB6 / RFU, CACNA2D3 / Fold change vs veh, CACNA2D3 / RFU, DTX4 / Fold change vs veh, DTX4 / RFU, TFCP2 / Fold change vs veh, TFCP2 / RFU, GMCL1 /// GMCL1P1 / Fold change vs veh, GMCL1 /// GMCL1P1 / RFU, AEBP2 / Fold change vs veh, AEBP2 / RFU, SNHG1 /// SNORD22 /// SNORD25 /// SNORD26 /// SNORD27 /// SNORD28 /// SNORD29 /// SNORD31 / Fold change vs veh, SNHG1 /// SNORD22 /// SNORD25 /// SNORD26 /// SNORD27 /// SNORD28 /// SNORD29 /// SNORD31 / Fold change (Aza/veh), C12orf56 (ProbeSet 11735607_a_at) / Fold change (ACY-1035/veh), C12orf56 (ProbeSet 11735607_a_at) / Fold change (Aza/veh), FGFR1OP (ProbeSet 11751329_s_at) / Fold change (ACY-1035/veh), FGFR1OP (ProbeSet 11751329_s_at) / Fold change (Aza/veh), VPS36 (ProbeSet 11739960_a_at) / Fold change (ACY-1035/veh), VPS36 (ProbeSet 11739960_a_at) / RFU SYPL1 (11715823_x_at) / Fold change /veh SYPL1 (11715823_x_at) / RFU IGFBP7 (11715501_s_at) / Fold change /veh IGFBP7 (11715501_s_at) / RFU REEP3 (11722064_at) / Fold change /veh REEP3 (11722064_at) / RFU IGLL1 (11728026_x_at) / Fold change /veh IGLL1 (11728026_x_at): dose or concentration left out as unconfirmed
Details: ProbeSet 11716844_s_at; LIST D

Nc1ccc(-c2cccs2)cc1NC(=O)c1ccc2c(c1)cc(C1CC1)n2CCN1CCOCC1 [ACY-1035]
RFU, DNAJC13: 129.69 RFU

From PMC5218480 (PLoS ONE, 2017)
